How the values were obtained:
in vitro = conditions: African green monkey
USUV = experiment: microbe, parasite or virus in culture; type: cell-based; conditions: Usutu virus, Vero, 48 h
persistent USUV [1] = type: cell-based, Usutu virus
[2] = in vivo; cited from earlier work
persistent USUV [3] = type: cell-based, Usutu virus; remark: listed apart in the source

SMILES | CC50 (in vitro) [µM] | IC50 (USUV) [µM] | Toxicity in words (Vero cells) | Decrease in intracellular viral RNA levels (persistent USUV [1]) [log10] | Plasma concentration [2] [µM] | Day by which infectious virus in the cellular supernatant is completely extinct (persistent USUV [3]) [days] | Decrease in virus titers and RNA levels in cellular supernatants (persistent USUV [3])
O=c1[nH]cc(F)c(=O)[nH]1 [5-Fluorouracil, 2,4-dihydroxy-5-fluoropyrimidine] | 66 | 71 | elevated toxicity |  |  |  | 
NC(=O)c1nc(F)cnc1O [Favipiravir, 6-fluoro-3-hydroxy-2-pyrazinecarboxamide] | > 2000 | 315 |  | < 2 | 1500 to 2000 | ≤ 6 | ~ 5 log10
NC(=O)c1ncn([C@@H]2O[C@H](CO)[C@@H](O)[C@H]2O)n1 [Ribavirin, 1-(β-D-Ribofuranosyl)-1H-1,2,4-triazole-3-carboxamide] | > 2000 | 163 |  | < 2 |  | ≤ 6 | ~ 5 log10

Source: paper PMC6630443 (Viruses, 2019)
